In article PMC12785453, “Oral Fluid Concentrations and Pharmacological Effects of Clephedrone and Methylone in Humans” (International Journal of Molecular Sciences, 2025):

System: healthy male participants
Assay: Subjective effects, visual analog scales (VAS), methylone trial
Type: in vivo, humans
Description: Methylone pharmacology was evaluated in a study designed as a randomized, double-blind, placebo-controlled, crossover clinical trial. Four pilot studies were conducted administering methylone at oral doses of 50 (n = 3), 100 (n = 6), 150 (n = 5), and 200 mg (n = 7). Participants attended 3 experimental sessions separated by a one-week wash-out period and received two doses of methylone (one dose per experimental session) compared to placebo, except in the last pilot study in which participants received one dose of methylone, compared to MDMA and placebo. However, in this manuscript, only the results corresponding to the highest methylone doses (n = 12; 150 and 200 mg; mean dose = 179.2 mg) are presented, to enable comparison with clephedrone self-administration. Participants were recruited by word of mouth in the volunteer database of the clinical pharmacology unit.
Methylone hydrochloride of high purity in powder form was acquired from LGC Standards (Teddington, UK) for the controlled study. The Pharmacy Department of the Hospital Universitari Germans Trias i Pujol was responsible for manufacturing, storing, and dispensing identical and opaque soft gelatin capsules containing 50 mg of methylone or a placebo (maltodextrin). Treatment consisted of 5 capsules that combined methylone and/or a placebo to reach the target dose. Details can be found in the previous article.
Subjective effects were evaluated with visual analog scales (VAS), the short form of the Addiction Research Center Inventory (ARCI), and the Evaluation of Subjective Effects of Substances with Abuse Potential questionnaire (VESSPA-SSE). In addition, the Sensitivity to Drug Reinforcement Questionnaire (SDRQ) and a pharmacological identification class questionnaire were used in the controlled study administering methylone.
VAS encompassed several adjectives that participants had to rate from “not at all” (0 mm) to “extremely” (100 mm) according to their sensations. This scale included 28 items: intensity, stimulated, high, good effects, bad effects, liking, changes in distances, changes in colors, changes in shapes, changes in lights, hallucinations (seeing lights or spots), hallucinations (seeing things, animals, insects, or people), changes in hearing, hallucinations (hearing sounds or voices), drowsiness, concentration, dizziness, confusion, different or changed body feeling, unreal body feeling, different surroundings, unreal surroundings, open, trust, feeling close to others, I want to be with other people, I want to hug someone, sexual desire, and sexual arousal.
Participants included in the naturalistic clephedrone study completed VAS at baseline, 0.50, 1, 1.5, 2, 3, 4, and 5 h, and ARCI and VESSPA at baseline, 1, 2, 3, 4, and 5 h after self-administering clephedrone. In the controlled study, VAS was performed at baseline and 0.25, 0.50, 0.75, 1, 1.5, 2, 3, 4, 6, 8, 10, and 24 h, and ARCI and VESSPA at baseline and 1, 2, 3, 4, 6, 8, and 10 h after administering methylone. Participants completed SDRQ and VAS sexual desire and arousal at baseline, 1 and 10 h, and the pharmacological class identification questionnaire at 8 h.
For statistical analysis, values of physiological (SBP, DBP, HR, and T) and subjective effects (VAS, ARCI, and VESSPA-SSE) were baseline–adjusted. Maximum effects (Emax) and the time needed to reach maximum effects (Tmax) were determined, and the area under the curve up to 5 h (AUC0–5h) for clephedrone and up to 6 h (AUC0–6h) for methylone was calculated using the trapezoidal rule. Emax and AUC values are presented as mean ± standard deviation, whereas Tmax is presented in median (range).
To find possible significant changes through the time course compared to baseline, a Dunnett multiple comparison test was carried out to compare each time point with baseline in both drug conditions. […]

[1] = 150 or 200 mg oral, n=12, listed as methylone
[2] = AUC0–6h, 150 or 200 mg oral, n=12

CNC(C)C(=O)c1ccc2c(c1)OCO2 (stereo not shown) [Methylone, 3,4-methylenedioxy-N-methylcathinone]
VAS Bad effects Emax (150 or 200 mg oral, n=12): 0.17 ± 0.58 mm
VAS Changes in colors Emax (150 or 200 mg oral, n=12): 0.00 ± 0.00 mm
VAS Changes in colors Tmax (150 or 200 mg oral, n=12): 0.0 (0.0–0.0) h
VAS Changes in distances Emax (150 or 200 mg oral, n=12): 1.58 ± 5.48 mm
VAS Changes in distances Tmax (150 or 200 mg oral, n=12): 0.0 (0.0–1.0) h
VAS Changes in hearing Emax (150 or 200 mg oral, n=12): 0.42 ± 1.44 mm
VAS Changes in hearing Tmax (150 or 200 mg oral, n=12): 0.0 (0.0–0.5) h
VAS Changes in lights Emax (150 or 200 mg oral, n=12): 0.00 ± 0.00 mm
VAS Changes in lights Tmax (150 or 200 mg oral, n=12): 0.0 (0.0–0.0) h
VAS Concentration Emax (150 or 200 mg oral, n=12): 2.50 ± 4.21 mm
VAS Confusion Emax (150 or 200 mg oral, n=12): 1.33 ± 2.57 mm
VAS Different or changed body feeling Emax (150 or 200 mg oral, n=12): 12.25 ± 10.68 mm
VAS Different surroundings Emax (150 or 200 mg oral, n=12): 0.33 ± 1.15 mm
VAS Dizziness Emax (150 or 200 mg oral, n=12): 3.08 ± 5.33 mm
VAS Drowsiness Emax (150 or 200 mg oral, n=12): 10.17 ± 16.16 mm
VAS Feeling close to others Emax (150 or 200 mg oral, n=12): 15.92 ± 19.97 mm
VAS Good effects Emax (150 or 200 mg oral, n=12): 29.75 ± 21.60 mm
VAS High Emax (150 or 200 mg oral, n=12): 26.67 ± 18.12 mm
VAS I want to be with other people Emax (150 or 200 mg oral, n=12): 17.42 ± 20.62 mm
VAS I want to hug someone Emax (150 or 200 mg oral, n=12): 15.33 ± 21.76 mm
VAS Intensity Emax (150 or 200 mg oral, n=12): 25.17 ± 18.95 mm
VAS Liking Emax (150 or 200 mg oral, n=12): 30.33 ± 23.26 mm
VAS Open Emax (150 or 200 mg oral, n=12): 15.67 ± 19.21 mm
VAS Sexual arousal Emax (150 or 200 mg oral, n=12): 0.50 ± 1.45 mm
VAS Sexual desire Emax (150 or 200 mg oral, n=12): 1.08 ± 2.07 mm
VAS Trust Emax (150 or 200 mg oral, n=12): 15.92 ± 20.07 mm
VAS Unreal body feeling Emax (150 or 200 mg oral, n=12): 0.00 ± 0.00 mm
VAS Unreal surroundings Emax (150 or 200 mg oral, n=12): 0.00 ± 0.00 mm
VAS Feeling close to others Emax [1]: > 15 mm
VAS Good effects Emax [1]: exceeding 20 mm
VAS High Emax [1]: exceeding 20 mm
VAS I want to be with other people Emax [1]: > 15 mm
VAS I want to hug someone Emax [1]: > 15 mm
VAS Intensity Emax [1]: exceeding 20 mm
VAS Liking Emax [1]: exceeding 20 mm
VAS Open Emax [1]: > 15 mm
VAS Stimulated Emax [1]: exceeding 20 mm
VAS Trust Emax [1]: > 15 mm
VAS Bad effects AUC0-5/6 h [2]: 0.06 ± 0.22 mm·h
VAS Changes in colors AUC0-5/6 h [2]: 0.00 ± 0.00 mm·h
VAS Changes in distances AUC0-5/6 h [2]: 0.72 ± 2.49 mm·h
VAS Changes in hearing AUC0-5/6 h [2]: 0.10 ± 0.36 mm·h
VAS Changes in lights AUC0-5/6 h [2]: 0.00 ± 0.00 mm·h
VAS Concentration AUC0-5/6 h [2]: 1.95 ± 3.58 mm·h
VAS Confusion AUC0-5/6 h [2]: 1.46 ± 3.43 mm·h
VAS Different or changed body feeling AUC0-5/6 h [2]: 7.96 ± 8.16 mm·h
VAS Different surroundings AUC0-5/6 h [2]: 0.17 ± 0.58 mm·h
VAS Dizziness AUC0-5/6 h [2]: 3.31 ± 6.88 mm·h
VAS Drowsiness AUC0-5/6 h [2]: 19.98 ± 33.41 mm·h
VAS Feeling close to others AUC0-5/6 h [2]: 14.20 ± 16.71 mm·h
VAS Good effects AUC0-5/6 h [2]: 26.38 ± 22.79 mm·h
VAS High AUC0-5/6 h [2]: 22.85 ± 18.54 mm·h
VAS I want to be with other people AUC0-5/6 h [2]: 16.94 ± 19.79 mm·h
VAS I want to hug someone AUC0-5/6 h [2]: 14.27 ± 19.51 mm·h
VAS Intensity AUC0-5/6 h [2]: 20.30 ± 18.35 mm·h
VAS Liking AUC0-5/6 h [2]: 28.45 ± 24.43 mm·h
VAS Open AUC0-5/6 h [2]: 15.04 ± 17.47 mm·h
VAS Sexual arousal AUC0-5/6 h [2]: 2.50 ± 7.23 mm·h
VAS Sexual desire AUC0-5/6 h [2]: 5.42 ± 10.33 mm·h
VAS Stimulated AUC0-5/6 h [2]: 20.30 ± 18.35 mm·h
VAS Trust AUC0-5/6 h [2]: 15.08 ± 18.74 mm·h
VAS Unreal body feeling AUC0-5/6 h [2]: 0.00 ± 0.00 mm·h
VAS Unreal surroundings AUC0-5/6 h [2]: 0.00 ± 0.00 mm·h
Time of peak pharmacological effects (oral): 0.75–1 h
